{"source": "patent US20180221435A1", "about": "“ITCH TREATMENT USING A COMBINATION OF NEUROKININ-1, GASTRIN RELEASING PEPTIDE, AND GLUTAMATE RECEPTOR ANTAGONISTS” (The Regents of the University of California, priority 2013, published 2018)", "key": {"[1]": {"conditions": "at the dose and in the condition of the same Table I line; cited from earlier work"}, "[2]": {"test_system": "superficial dorsal horn neurons", "experiment": "In vivo single-unit recording, id chloroquine-evoked firing, spinal superfusion of antagonists", "design": "species or system mice", "procedure": "(§1) The single-unit recording from the lumbar spinal cord was conducted as previously detailed [Akiyama T et al., Journal of neurophysiology 102(4):2176-2183 (2009); Akiyama T et al., The Journal of neuroscience: the official journal of the Society for Neuroscience 29(20):6691-6699 (2009)]. Anesthesia was induced by sodium pentobarbital (60 mg/kg ip) and maintained by supplemental injections (10-20 mg/kg/hr). A gravity-driven perfusion system allowed artificial cerebrospinal fluid (Krebs: 117 mM NaCl, 3.6 mM KCl, 2.5 mM CaCl2, 1.2 mM MgCl2, 1.2 mM NaH2PO4, 25 mM NaHCO3 and 11 mM glucose which was equilibrated with 95% 02 and 5% CO2 at 37° C.) to be superfused continually over the exposed lumbosacral spinal cord [Akiyama T et al., PloS one 6(7):e22665 (2011)]. A tungsten microelectrode recorded single-unit activity in the lumbar spinal cord. A chemical search strategy [Akiyama T et al., Journal of neurophysiology 102(4):2176-2183 2009; Akiyama T et al., The Journal of neuroscience: the official journal of the Society for Neuroscience 29(20):6691-6699 (2009)] was used to identify and isolate chloroquine-responsive units. Our search strategy was intended to maximize the chance of isolating a chloroquine-responsive neuron; it was assumed that such neurons either gave rise to ascending projections, or served as interneurons in segmental scratch-reflex circuitry, and no attempt was presently made to distinguish between these possibilities.\nBriefly, a small (˜0.25 μl) intradermal (id) microinjection of chloroquine (100 μg/μl) was made in the ventral hindpaw and a spontaneously active unit in the superficial lumbar dorsal horn (depth<300 um) was isolated. After the spontaneous activity had waned, chloroquine (1 μl, 100 μg/μl) was injected again at the same site through the same needle. […] Responses were usually recorded for at least 30 minutes, although in many cases unit firing declined over a shorter period.\nAction potentials were recorded to a computer and counted using Chart software (AD Instruments, Colorado Springs Colo.) and Spike2 software (CED Instruments). Ongoing responses elicited by chloroquine, histamine, or AITC were averaged at 20-second intervals before, during and after the antagonist application, and compared by one way repeated-measures analysis of variance (ANOVA) followed by post-hoc Bonferroni test, with p<0.05 set as significant. The mean firing rate was calculated over a 20-second period 40 seconds after the antagonist application, and compared by one way ANOVA followed by post-hoc Bonferroni test, with p<0.05 set as significant. The criterion for decrease in ongoing firing was >70% decrease below the ongoing activity elicited by pruritogen over a 20-second period 40 seconds after the antagonist application. Mean peak responses elicited by noxious pinch were compared by one way repeated-measures ANOVA followed by post-hoc Bonferroni test, with p<0.05 set as significant. At the end of each experiment, an electrolytic lesion was made at the spinal cord recording site. The spinal cord was postfixed in 10% buffered formalin, cut in 50 μm frozen sections, and examined under the light microscope to identify lesions."}, "[3]": {"test_system": "superficial dorsal horn neurons", "experiment": "In vivo single-unit recording, id histamine-evoked firing, spinal superfusion of antagonists", "design": "species or system mice", "conditions": "for Percentages of dorsal horn units that exhibited a decrease of 70% or more in firing rate following spinal superfusion of antagonists: id histamine-evoked firing, superfusion 1 min, RC-3095 20 μM, L-733060 200 μM, CNQX 100 μM", "procedure": "(§2) Akiyama T et al., The Journal of neuroscience: the official journal of the Society for Neuroscience 29(20):6691-6699 (2009)]. Anesthesia was induced by sodium pentobarbital (60 mg/kg ip) and maintained by supplemental injections (10-20 mg/kg/hr). […] A tungsten microelectrode recorded single-unit activity in the lumbar spinal cord. A chemical search strategy [Akiyama T et al., Journal of neurophysiology 102(4):2176-2183 2009; […] Following mechanical stimulation, histamine (50 μg) was injected id within the same receptive field at a different location via a separate injection cannula. Following the id histamine injection, we tested the effects of antagonists for the receptors of NK1, GRP, or AMPA/kainate in the same manner as described above for chloroquine. […] Following the AITC application, we tested the effects of the NK-1 receptor antagonist, the AMPA/kainate receptor antagonist, or a combination of both antagonists in the same manner as described above for chloroquine. Action potentials were recorded to a computer and counted using Chart software (AD Instruments, Colorado Springs Colo.) and Spike2 software (CED Instruments). […] Mean peak responses elicited by noxious pinch were compared by one way repeated-measures ANOVA followed by post-hoc Bonferroni test, with p<0.05 set as significant. At the end of each experiment, an electrolytic lesion was made at the spinal cord recording site."}, "[4]": {"test_system": "superficial dorsal horn neurons", "experiment": "In vivo single-unit recording, topical AITC-evoked firing, spinal superfusion of antagonists", "design": "species or system mice", "procedure": "as §2"}, "[5]": {"test_system": "superficial dorsal horn neurons", "experiment": "In vivo single-unit recording, noxious pinch-evoked responses, spinal superfusion of antagonists", "design": "species or system mice", "conditions": "pinch at end of 1 min superfusion", "procedure": "Akiyama T et al., The Journal of neuroscience: the official journal of the Society for Neuroscience 29(20):6691-6699 (2009)]. Anesthesia was induced by sodium pentobarbital (60 mg/kg ip) and maintained by supplemental injections (10-20 mg/kg/hr). […] A tungsten microelectrode recorded single-unit activity in the lumbar spinal cord. A chemical search strategy [Akiyama T et al., Journal of neurophysiology 102(4):2176-2183 2009; […] Units were classified as wide dynamic range (WDR)-type if they responded in a graded manner to innocuous mechanical stimulation (brushing, cotton wisp) and noxious pinch, or nociceptive-specific (NS) if they responded to noxious pinch (and to the 55 mN von Frey stimulus) but not to the cotton wisp or brush stimuli. […] Akiyama T et al., The Journal of neuroscience: the official journal of the Society for Neuroscience 29(20):6691-6699 (2009)]. […] At the end of the antagonist superfusion, the noxious pinch stimulus was delivered again at the same site on the receptive field. Thirty minutes later, the noxious pinch stimulus was delivered in the same manner. Action potentials were recorded to a computer and counted using Chart software (AD Instruments, Colorado Springs Colo.) and Spike2 software (CED Instruments). […]"}, "[6]": {"test_system": "superficial dorsal horn neurons", "experiment": "Baseline activity of superficial dorsal horn neurons before and after antagonist application", "format": "in vivo, mice", "conditions": "± SEM", "procedure": "as §1\nThere was no significant effect of any of the antagonists on the baseline activity of superficial dorsal horn neurons that were subsequently show to respond to pruritogens. […] Values prior to, and after administration of each antagonist individually or in combination, are as follows. NK-1 antagonist L-733060: pre-application 0.88 Hz±0.23 (SEM), post-antagonist 0.72 Hz±0.19 (n=10). GRPR antagonist RC-3095: pre-application 0.54 Hz±0.54, post-antagonist: 0.53 Hz±0.53 (n=4). CNQX: pre-application 0.53 Hz±0.14, post-antagonist 0.64 Hz±0.21 (n=22). CNQX+L-733060: pre-application 0.52 Hz±0.17, post-antagonists 0.43 Hz±0.11 (n=26). CNQX+L-733060+RC-3095: pre-application 0.14 Hz±0.06, post-antagonists 0.17 Hz±0.06 (n=9)."}, "[7]": {"test_system": "histamine-evoked scratching", "conditions": "intrathecal L-733060 22.7 nmol or RC-3095 0.3 nmol, data adapted from Akiyama et al. 2013, cited from earlier work"}, "DRG cells": {"test_system": "DRG cells", "experiment": "Calcium imaging of DRG cells", "conditions": "898 DRG cells; chloroquine 300 μM, histamine 100 μM, 30 sec; ratio increase more than 10%"}}, "note": "Like-named read-outs stand apart in the source and are kept apart here."}
{"smiles": "COc1ccc(OC(F)(F)F)cc1CN[C@H]1CCCN[C@H]1c1ccccc1", "note": "[AV608]", "values": [{"measurement": "Side Effects", "setting": "[1]", "result": "well tolerated."}]}
{"smiles": "C[C@@H](O[C@H]1OCCN(Cc2n[nH]c(=O)[nH]2)[C@H]1c1ccc(F)cc1)c1cc(C(F)(F)F)cc(C(F)(F)F)c1", "note": "[Aprepitant]", "values": [{"measurement": "Side Effects", "setting": "[1]", "result": "generally mild."}]}
{"smiles": "COc1ccc(-n2nnnc2C(F)(F)F)cc1CN[C@H]1CCCN[C@H]1c1ccccc1", "note": "[GR205171]", "values": [{"measurement": "Side Effects", "setting": "[1]", "result": "well-tolerated"}]}
{"smiles": "CC(=O)N1CCN([C@H]2CCN(C(=O)N(C)[C@H](C)c3cc(C(F)(F)F)cc(C(F)(F)F)c3)[C@@H](c3ccc(F)cc3C)C2)CC1", "note": "[GW679769]", "values": [{"measurement": "Side Effects", "setting": "[1]", "result": "well tolerated,"}]}
{"smiles": "FC(F)(F)c1cc(CO[C@H]2CCCN[C@H]2c2ccccc2)cc(C(F)(F)F)c1", "note": "[L733060]", "values": [{"measurement": "chloroquine-evoked firing compared to vehicle superfusion", "setting": "[2]; 40-60 s of superfusion, normalized firing, vs vehicle", "result": "did not produce a significant reduction in firing compared to vehicle superfusion"}, {"measurement": "chloroquine-evoked firing in NS cells", "setting": "[2]; NS units, vs vehicle", "result": "but not NS cells"}, {"measurement": "chloroquine-evoked firing in WDR cells", "setting": "[2]; WDR units, vs vehicle", "result": "significantly reduced"}, {"measurement": "chloroquine-evoked firing, effect of spinal superfusion", "setting": "[2]; relative to chloroquine-evoked response prior to spinal superfusion", "result": "significantly attenuated after the cessation of superfusion"}, {"measurement": "histamine-evoked response of NS units", "setting": "[3]; NS units, vs vehicle", "result": "failed to reduce"}, {"measurement": "histamine-evoked response of WDR units", "setting": "[3]; WDR units, vs vehicle", "result": "failed to reduce"}, {"measurement": "histamine-evoked firing, effect of spinal superfusion", "setting": "[3]; all units", "result": "not significantly different from vehicle"}, {"measurement": "Percentages of dorsal horn units that exhibited a decrease of 70% or more in firing rate following spinal superfusion of antagonists", "setting": "[3]", "result": "33% (6/18)"}, {"measurement": "Percentages of dorsal horn units that exhibited a decrease of 70% or more in firing rate following spinal superfusion of antagonists", "setting": "[3]; listed as NK-1 antagonist", "result": 33, "unit": "%"}, {"measurement": "AITC-evoked firing, effect of spinal superfusion", "setting": "[4]; topical AITC 75%", "result": "numerically reduced"}, {"measurement": "Percentages of dorsal horn units that exhibited a decrease of 70% or more in firing rate following spinal superfusion of antagonists", "setting": "[4]; topical AITC-evoked firing, superfusion 1 min, L-733060 200 μM, CNQX 100 μM", "result": "22% (2/9)"}, {"measurement": "noxious pinch-evoked response, effect of spinal superfusion", "setting": "[5]", "result": "not reduced"}, {"measurement": "baseline neuronal firing rate, post-antagonist", "setting": "[6]; averaged over 1 min following antagonist application", "result": 0.72, "unit": "Hz"}, {"measurement": "baseline neuronal firing rate, pre-application", "setting": "[6]; averaged over 1 min prior to antagonist application", "result": 0.88, "unit": "Hz"}, {"measurement": "histamine-evoked scratching (scratch bouts/30 minutes)", "setting": "[7]; listed as NK-1 antagonist", "result": "neither the NK-1 nor the GRPR antagonist attenuated"}, {"measurement": "histamine-evoked scratching (scratch bouts/30 minutes)", "setting": "[7]; listed as NK-1 receptor antagonist", "result": "not affected"}]}
{"smiles": "CC(=O)N1N=C(c2ccc(N)cc2)c2cc3c(cc2C[C@H]1C)OCO3", "note": "[Talampanel]", "values": [{"measurement": "Side Effects", "setting": "[1]", "result": "Mild (fatigue,"}]}
{"smiles": "O=c1[nH]c2cc(C(F)(F)F)c(N3CCOCC3)cc2n(CP(=O)(O)O)c1=O", "note": "[ZK 200775]", "values": [{"measurement": "Side Effects", "setting": "[1]", "result": "Sedation,"}]}
{"smiles": "CCN(CC)CCCC(C)Nc1ccnc2cc(Cl)ccc12", "note": "(stereo not drawn) [chloroquine]", "values": [{"measurement": "percentage of DRG cells imaged that responded", "setting": "DRG cells", "result": 8.4, "unit": "%"}]}
{"smiles": "NCCc1c[nH]cn1", "note": "[histamine]", "values": [{"measurement": "percentage of DRG cells imaged that responded", "setting": "DRG cells", "result": 12.9, "unit": "%"}]}
